Reference: US20240376097A1, “BCL-2 Inhibitor” (BeiGene Ltd., priority 2020, published 2024)

Key:
[1] = system: RS4;11 (BCL-2 dependent acute lymphoblastic leukemia cell line); experiment: RS4;11 Cell Proliferation Assay; type: cell-based; conditions: Homo sapiens, RS4-11, RS4;11 cells, read-out: Cellular proliferation assay (IC50, nM) RS4
Description: Biological Example: RS4;11 Cell Proliferation Assay
(§1) The BCL-2 dependent acute lymphoblastic leukemia (ALL) cell line, RS4;11, was used to study the cellular potency of BCL-2 inhibitors. The cells (ATCC, CRL-1873) were cultured in RPMI-1640 complete medium (RPMI-1640 medium, HEPES (Gibco, 22400-105) supplemented with 10% fetal bovine serum (FBS) (Gibco, 10099-1441), 100 unit/ml penicillin and 100 μg/ml streptomycin (Gibco, 15140122)) and maintained in a humidified chamber at 37° C. containing 5% CO2. Each compound was serially diluted with 1 μM as the maximum concentration. To test the apoptotic effect of the compounds, the cells were seeded at 50,000 in 180 μl per well in 96-well plates and treated with 10-point dilution series of each compound for 48 hrs at 37° C. Cell viability was assessed after the treatment using CellTiter-GLO luminescent assay (Promega) according to the manufacturer's recommendations. Briefly, 30 μl of CellTiter-GLO reagent was added into 200 μl of cell culture. Mixture was agitated on an orbital shaker for 5 min to ensure cell lysis followed by 7 min incubation at room temperature to allow development and stabilization of luminescent signals, which corresponded to the quantity of ATP and thus the quantity of metabolically active cells. Luminescent signals were measured using PHERAstar FS reader (BMG). Mean IC50 values were determined with GraphPad Prism software.

[2] = biological target: Recombinant human Bcl-2 protein (Homo sapiens (Human), UniProt P10415); experiment: Bcl-2 TR-FRET Assay; type: binding; conditions: Bcl-2 wild type, TR-FRET; read-out: Biochemical assay (IC50, nM) Bcl-2 WT
Summary of the method: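 TR-FRET read (337 nm excitation, 520/490 nm emission) after 1 h with 0.5 nM FITC-labeled Bak peptide and Tb-cryptate anti-6His antibody. Bcl-2 at 0.05 nM had been pre-incubated 0.5 h with compound. IC50 fitted by four-parameter logistic equation.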

[3] = system: BCL-2 G101V knock-in cell line H96 (derive from RS4;11); experiment: Bcl 2-G101V Knock-In RS4;11 Cell Proliferation Assay; type: cell-based; conditions: Homo sapiens, RS4;11 Bcl-2 G101V knock-in clone H96, 48 hrs, CellTiter-GLO, read-out: Cellular proliferation assay (IC50, nM) RS4
Description: Biological Example: Bcl 2-G101V Knock-In RS4;11 Cell Proliferation Assay
(1) RS4;11 H96 Bcl 2-G101V Knock-In Cell Line Generation
Briefly, RS4;11 BCL2-G101V knock-in cell pool was generated using Crisper/Cas9 gene editing system and the BCL2-G101V knock-in single clone H96 was picked from the knock-in cell pool and validated by WES (whole exome-sequencing) and RNA-seq.
The BCL-2 dependent acute lymphoblastic leukemia (ALL) cell line, RS4;11(ATCC, CRL-1873), was cultured in RPMI-1640 complete medium (RPMI-1640 medium, HEPES (Gibco, 22400-105) supplemented with 10% fetal bovine serum (FBS) (Gibco, 10099-1441), 100 unit/ml penicillin and 100 μg/ml streptomycin (Gibco, 15140122)) and maintained in a humidified chamber at 37° C. containing 5% CO2.
To obtain BCL2-G101V knock-in cell pool, RS4;11 was co-transfected with the Cas9-gRNA which also expressed GFP label, and the Donor gene which contained the BCL2-G101V mutant sequence. After 48 hrs of electroporation, the GFP positive cells were collected through FACSAriaIII cell sorting system. Cell pool was recovered for 3 days and then cultured under 2 nM ABT-199 stress for 4 weeks. […] Then cells were plated in 96 well U-plate with 1 cell/well for 10000 wells for single clone selection. After 3-5 weeks growing, clones were successively screened by PCR sequencing. And three BCL2-G101V knock-in clones: H96, H142 and H233, have been picked out.
Three clones were validated by genome DNA and cDNA(mRNA) PCR sequencing, and BCL-2, BCL-xL and MCL-1 expression using Western Blot. The H96 clone was also validated by WES (whole exome-sequencing) and RNA-seq.
(2) Bcl 2-G101V Knock-In RS4;11 Cell Proliferation Assay
as §1, with “G101V knock-in” for “dependent acute lymphoblastic leukemia (ALL)”, “line H96 (derive from RS4;11) were” for “line, RS4;11, was”, “cells” for “cells (ATCC, CRL-1873)”, “μM or 10 μM” for “μM”, “90” for “180”, “100” for “200”

[4] = system: recombinant human Bcl-2-G101V protein; experiment: Bcl-2-G101V TR-FRET Assay; type: binding; conditions: ratio of biochemical IC50 Bcl-2 G101V / Bcl-2 WT
Summary of the method: (§2)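 Compounds were titrated at increasing concentrations against the Bcl-2-G101V–ligand interaction. TR-FRET signals were then read (ex 337 nm; em 490/520 nm). Percent inhibition was derived from the 490-to-520 nm ratio, and IC50 from a four-parameter logistic equation.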

[5] = biological target: recombinant human Bcl-2-G101V protein (Homo sapiens (Human), UniProt P10415, G101V); experiment: Bcl-2-G101V TR-FRET Assay; type: binding; conditions: Bcl-2 G101V mutant, TR-FRET; read-out: Biochemical assay (IC50, nM) Bcl-2 G101V
Summary of the method: as §2

Structure (SMILES) | IC50 [1] [nM] | IC50 [2] [nM] | IC50 [3] [nM] | Ratio of Bcl-2 G101V/WT [4] | IC50 [5] [nM]
CC(C)c1ccccc1[C@@H]1CN(C2CC2)CCN1C1CC2(CCN(c3ccc(C(=O)NS(=O)(=O)c4ccc(NC[C@H]5CC[C@](C)(O)CC5)c([N+](=O)[O-])c4)c(Oc4cnc5[nH]ccc5c4)c3)CC2)C1 (single isomer, unassigned) [Example 4, 2-((1H-pyrrolo[2,3-b]pyridin-5-yl)oxy)-4-(2-((R or S)-4-cyclopropyl-2-(2-isopropylphenyl)piperazin-1-yl)-7-azaspir[3.5]nonan-7-yl)-N-((4-((((1r,4r)-4-hydroxy-4-methylcyclohexyl)methyl)amino)-3-nitrophenyl)sulfonyl)benzamide] | 0.87 | 0.045 | 9.56 | 35.6 | 1.6
COCCN1CCN(C2CC3(CCN(c4ccc(C(=O)NS(=O)(=O)c5ccc(NC[C@H]6CC[C@](C)(O)CC6)c([N+](=O)[O-])c5)c(Oc5cnc6[nH]ccc6c5)c4)CC3)C2)[C@@H](c2ccccc2C(C)C)C1 (single isomer, unassigned) [Example 13a, 2-((1H-pyrrolo[2,3-b]pyridin-5-yl)oxy)-N-((4-((((1r,4r)-4-hydroxy-4-methylcyclohexyl)methyl)amino)-3-nitrophenyl)sulfonyl)-4-(2-((S or R)-2-(2-isopropylphenyl)-4-(2-methoxyethyl)piperazin-1-yl)-7-azaspiro[3.5]nonan-7-yl)benzamide] | 10.5 | 0.038 | 87.4 | 94.7 | 3.6
CC(C)c1ccccc1[C@@H]1CN(Cc2cnn(C)c2)CCN1C1CC2(CCN(c3ccc(C(=O)NS(=O)(=O)c4ccc(NC[C@H]5CC[C@](C)(O)CC5)c([N+](=O)[O-])c4)c(Oc4cnc5[nH]ccc5c4)c3)CC2)C1 (single isomer, unassigned) [Example 22b, 2-((1H-pyrrolo[2,3-b]pyridin-5-yl)oxy)-N-((4-((((1r,4r)-4-hydroxy-4-methylcyclohexyl)methyl)amino)-3-nitrophenyl)sulfonyl)-4-(2-((S or R)-2-(2-isopropylphenyl)-4-((1-methyl-1H-pyrazol-4-yl)methyl)piperazin-1-yl)-7-azaspiro[3.5]nonan-7-yl)benzamide] | 7.6 | 0.038 | 57.3 | 50.0 | 1.9
COc1ccc(CN2CCN(C3CC4(CCN(c5ccc(C(=O)NS(=O)(=O)c6ccc(NCC7CCOCC7)c([N+](=O)[O-])c6)c(Oc6cnc7[nH]ccc7c6)c5)CC4)C3)[C@H](c3ccccc3C(C)C)C2)cc1 (single isomer, unassigned) [Example 69, (R or S)-2-((1H-pyrrolo[2,3-b]pyridin-5-yl)oxy)-4-(2-(2-(2-isopropylphenyl)-4-(4-methoxybenzyl)piperazin-1-yl)-7-azaspiro[3.5]nonan-7-yl)-N-((3-nitro-4-(((tetrahydro-2H-pyran-4-yl)methyl)amino)phenyl)sulfonyl) benzamide] | 0.47 | 0.041 | 2 | 8.9 | 0.37
CCN1CCN(C2CC3(CCN(c4ccc(C(=O)NS(=O)(=O)c5ccc(NC[C@H]6CC[C@](C)(O)CC6)c([N+](=O)[O-])c5)c(Oc5cnc6[nH]ccc6c5)c4)CC3)C2)C(c2ccccc2C(C)C)C1 (stereo partly drawn) [Example 2] | 0.53 | 0.011 | 3.94 | 22.7 | 0.25
CC(C)c1ccccc1C1CN(C2CCCCC2)CCN1C1CC2(CCN(c3ccc(C(=O)NS(=O)(=O)c4ccc(NC[C@H]5CC[C@](C)(O)CC5)c([N+](=O)[O-])c4)c(Oc4cnc5[nH]ccc5c4)c3)CC2)C1 (stereo partly drawn) [Example 9] | 0.51 | 0.034 | 4.37 | 15.3 | 0.52
